According to ChEMBL document CHEMBL5584344, “Discovery of Dehydrogenated Imipridone Derivatives as Activators of Human Caseinolytic Protease P” (J Med Chem, 2024):
Activity calls are given as the source filed them. The calls are words filed in the database; no cut-off is given here.

Tests used:
[1] = tested on: MIA PaCa-2; test: Induction of apoptosis in human MIA PaCa-2 cells assessed as early apoptotic cells at 100 nM measured after 72 hrs by Annexin V-FITC/propidium iodide staining based flow cytometric analysis (reference value: 5.99%); type: functional
[2] = tested on: MIA PaCa-2; conditions: Homo sapiens, dose 50-200 nM, time 48.0 hrs
[3] = tested on: MIA PaCa-2; test: Induction of apoptosis in human MIA PaCa-2 cells transfected with shClpP-1 assessed as early apoptotic cells at 200 nM measured after 72 hrs by Annexin V-FITC/propidium iodide staining based flow cytometric analysis (reference value: 4.59%); type: functional
[4] = tested on: MIA PaCa-2; test: Induction of apoptosis in human MIA PaCa-2 cells overexpressing MTS-ClpP-OE assessed as viable cells at 100 nM measured after 72 hrs by Annexin V-FITC/propidium iodide staining based flow cytometric analysis (reference value: 83.7%); type: functional; conditions: read-out: Activity
[5] = AUC (0 to t) in Sprague-Dawley rat at 15 mg/kg, po measured upto 1440 mins by LC-MS analysis; type: ADME, organism-based; conditions: in vivo
[6] = tested on: MIA PaCa-2; test: Induction of apoptosis in human MIA PaCa-2 cells overexpressing MTS-ClpP-OE assessed as early apoptotic cells at 100 nM measured after 72 hrs by Annexin V-FITC/propidium iodide staining based flow cytometric analysis (reference value: 3.38%); type: functional
[7] = Acute toxicity in female BALB/c mouse assessed as effect on lung at 200 mg/kg administered via oral gavage measured after 7 days by H and E staining based analysis; type: organism-based; conditions: in vivo, 168 h, time 7 day
[8] = Acute toxicity in female BALB/c mouse assessed as effect on spleen at 200 mg/kg administered via oral gavage measured after 7 days by H and E staining based analysis; type: organism-based; conditions: in vivo, 168 h, time 7 day
[9] = Metabolic stability in human liver microsomes assessed as intrinsic clearance at 1.0 uM measured upto 120 mins in presence of NADPH by LC/MS analysis; type: ADME, Microsome; conditions: read-out: CLH
[10] = tested on: MIA PaCa-2; conditions: Homo sapiens, dose 100-500 nM, time 48.0 hrs
[11] = tested on: MIA PaCa-2; test: Induction of apoptosis in human MIA PaCa-2 cells transfected with shNC assessed as late apoptotic cells at 200 nM measured after 72 hrs by Annexin V-FITC/propidium iodide staining based flow cytometric analysis (reference value: 4.02%); type: functional
[12] = tested on: MIA PaCa-2; test: Induction of apoptosis in human MIA PaCa-2 cells assessed as late apoptotic cells at 500 nM measured after 72 hrs by Annexin V-FITC/propidium iodide staining based flow cytometric analysis (reference value: 3.59%); type: functional
[13] = Toxicity in male BALB/c nude mouse histological abnormality in heart at 15 to 30 mg/kg, po measured after 28 days by H and E staining based analysis; type: organism-based; conditions: in vivo, 672 h, dose 15-30 mg/kg, time 28 day
[14] = tested on: MIA PaCa-2; conditions: Homo sapiens, dose 50-200 nM, time 72.0 hrs
[15] = Metabolic stability in human liver microsomes assessed as half life at 1.0 uM measured upto 120 mins in presence of NADPH by LC/MS analysis; type: ADME, Microsome
[16] = Acute toxicity in female BALB/c mouse assessed as effect on body weight at 300 mg/kg administered via oral gavage measured after 3 days; type: organism-based; conditions: in vivo, 72 h, time 3 day
[17] = tested on: MIA PaCa-2; conditions: Homo sapiens, dose 200.0 nM, time 72.0 hrs
[18] = target: Voltage-gated inwardly rectifying potassium channel KCNH2 (Homo sapiens, UniProt Q12809); test: Inhibition of human ERG expressed in HEK293 cells at 1 uM by automated patch clamp assay; type: toxicity, cell-based; conditions: hek293, 1 µM
[19] = tested on: MIA PaCa-2; test: Induction of apoptosis in human MIA PaCa-2 cells transfected with shNC assessed as viable cells at 200 nM measured after 72 hrs by Annexin V-FITC/propidium iodide staining based flow cytometric analysis (reference value: 86.7%); type: functional; conditions: read-out: Activity
[20] = tested on: MIA PaCa-2; test: Induction of apoptosis in human MIA PaCa-2 cells assessed as viable cells at 500 nM measured after 72 hrs by Annexin V-FITC/propidium iodide staining based flow cytometric analysis (reference value: 90.0%); type: functional; conditions: read-out: Activity
[21] = tested on: HCT-116; conditions: Homo sapiens, dose 100-500 nM, time 48.0 hrs
[22] = tested on: MIA PaCa-2; test: Induction of apoptosis in human MIA PaCa-2 cells transfected with empty vector assessed as necrotic cells at 100 nM measured after 72 hrs by Annexin V-FITC/propidium iodide staining based flow cytometric analysis (reference value: 1.18%); type: functional
[23] = Acute toxicity in female BALB/c mouse assessed as effect on liver at 200 mg/kg administered via oral gavage measured after 7 days by H and E staining based analysis; type: organism-based; conditions: in vivo, 168 h, time 7 day
[24] = tested on: MIA PaCa-2; test: Induction of apoptosis in human MIA PaCa-2 cells transfected with empty vector assessed as early apoptotic cells at 100 nM measured after 72 hrs by Annexin V-FITC/propidium iodide staining based flow cytometric analysis (reference value: 2.47%); type: functional
[25] = tested on: MIA PaCa-2; conditions: Homo sapiens, dose 200.0 nM, time 72.0 hrs; remark: listed apart in the source
[26] = tested on: MIA PaCa-2; test: Induction of apoptosis in human MIA PaCa-2 cells transfected with shClpP-1 assessed as necrotic cells at 200 nM measured after 72 hrs by Annexin V-FITC/propidium iodide staining based flow cytometric analysis (reference value: 4.44%); type: functional
[27] = tested on: MIA PaCa-2; test: Induction of apoptosis in human MIA PaCa-2 cells transfected with shNC assessed as early apoptotic cells at 200 nM measured after 72 hrs by Annexin V-FITC/propidium iodide staining based flow cytometric analysis (reference value: 5.95%); type: functional
[28] = Toxicity in male BALB/c nude mouse assessed as effect on body weight at 15 to 30 mg/kg, po measured upto 28 days; type: organism-based; conditions: in vivo, 672 h, dose 15-30 mg/kg, time < 28 day
[29] = Toxicity in male BALB/c nude mouse histological abnormality in kidney at 15 to 30 mg/kg, po measured after 28 days by H and E staining based analysis; type: organism-based; conditions: in vivo, 672 h, dose 15-30 mg/kg, time 28 day
[30] = tested on: MIA PaCa-2; test: Induction of apoptosis in human MIA PaCa-2 cells assessed as late apoptotic cells at 100 nM measured after 72 hrs by Annexin V-FITC/propidium iodide staining based flow cytometric analysis (reference value: 3.59%); type: functional
[31] = tested on: MIA PaCa-2; conditions: Homo sapiens, dose 50.0 nM, time 72.0 hrs
[32] = Drug concentration in Sprague-Dawley rat plasma at 15 mg/kg, po measured after 0.5 hrs by LC-MS analysis; type: ADME, organism-based
[33] = tested on: MIA PaCa-2; test: Induction of apoptosis in human MIA PaCa-2 cells transfected with empty vector assessed as late apoptotic cells at 100 nM measured after 72 hrs by Annexin V-FITC/propidium iodide staining based flow cytometric analysis (reference value: 2.81%); type: functional
[34] = Antiproliferative activity against human HS5 cells assessed as inhibition of cell growth at 10 uM incubated for 72 hrs by CCK-8 method; type: toxicity, cell-based; conditions: hs5, 72 h

Sequence of Voltage-gated inwardly rectifying potassium channel KCNH2 (Q12809 whole entry): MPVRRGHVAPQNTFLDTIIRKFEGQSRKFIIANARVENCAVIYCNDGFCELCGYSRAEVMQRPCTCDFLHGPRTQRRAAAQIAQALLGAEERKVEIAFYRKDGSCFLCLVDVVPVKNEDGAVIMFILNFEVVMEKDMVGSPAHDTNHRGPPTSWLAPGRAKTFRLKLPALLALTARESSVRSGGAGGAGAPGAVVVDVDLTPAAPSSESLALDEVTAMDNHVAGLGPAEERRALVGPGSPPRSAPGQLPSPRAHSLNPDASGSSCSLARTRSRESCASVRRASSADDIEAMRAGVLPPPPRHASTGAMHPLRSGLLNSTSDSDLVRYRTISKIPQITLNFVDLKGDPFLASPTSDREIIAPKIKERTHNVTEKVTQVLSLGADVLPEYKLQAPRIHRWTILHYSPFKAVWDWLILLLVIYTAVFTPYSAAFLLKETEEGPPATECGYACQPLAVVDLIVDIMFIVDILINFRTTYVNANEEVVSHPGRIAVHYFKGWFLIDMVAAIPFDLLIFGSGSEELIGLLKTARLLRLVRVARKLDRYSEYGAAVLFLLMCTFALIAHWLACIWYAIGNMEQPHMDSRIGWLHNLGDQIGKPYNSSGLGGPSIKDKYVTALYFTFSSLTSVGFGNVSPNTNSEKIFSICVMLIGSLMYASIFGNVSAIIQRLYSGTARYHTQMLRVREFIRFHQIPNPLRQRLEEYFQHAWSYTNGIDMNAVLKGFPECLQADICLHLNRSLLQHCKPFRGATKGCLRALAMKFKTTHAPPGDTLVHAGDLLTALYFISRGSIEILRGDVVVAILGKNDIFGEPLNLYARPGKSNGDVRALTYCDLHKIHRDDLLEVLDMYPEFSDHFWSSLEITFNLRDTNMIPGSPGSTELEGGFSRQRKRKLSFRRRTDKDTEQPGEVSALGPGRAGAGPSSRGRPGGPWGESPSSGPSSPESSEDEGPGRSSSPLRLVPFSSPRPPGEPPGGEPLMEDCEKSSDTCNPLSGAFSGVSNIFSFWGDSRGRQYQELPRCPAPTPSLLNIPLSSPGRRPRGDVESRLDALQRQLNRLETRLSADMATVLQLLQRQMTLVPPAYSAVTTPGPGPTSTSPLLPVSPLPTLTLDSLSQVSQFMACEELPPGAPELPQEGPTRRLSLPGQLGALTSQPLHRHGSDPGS

O=c1c2c(n3ccnc3n1Cc1ccc(C(F)(F)F)cc1)CCN(Cc1cccc(Cl)c1)C2
Activity [1]: 13.8%
inhibition [2]: Dose-Dependent Effect
Activity [3]: 5.47%
viability at 0.1 µM [4]: 33.8%
AUC(0-t) at 24 h [5]: 16.4 µg·h/mL
Activity [6]: 21.8%
Activity [7]: Non-Toxic
Activity [8]: Non-Toxic
CLint scaled at 1 µM [9]: 8.66 L/h/kg
inhibition [10]: Active
Activity [11]: 17.1%
Activity [12]: 32.3%
Activity [13]: Non-Toxic
inhibition [14]: Dose-Dependent Effect
half-life at 1 µM [15]: 24 min
Activity [16]: Toxic
inhibition [17]: inactive
inhibition (INH) [18]: Not Active
viability at 0.2 µM [19]: 53.8%
viability at 0.5 µM [20]: 31.5%
inhibition [21]: Active
Activity [22]: 0.61%
Activity [23]: Non-Toxic
Activity [24]: 3.54%
inhibition [25]: inactive
Activity [26]: 3.35%
Activity [27]: 27.4%
Activity [28]: Non-Toxic
Activity [29]: Non-Toxic
Activity [30]: 5.48%
inhibition [31]: Active
concentration at 0.5 h [32]: 0.612 µg/mL
Activity [33]: 3.74%
Activity [34]: Non-Toxic
